Assay results published in patent US20230138327A1, “COMPOSITIONS AND METHODS CONTAINING REDUCED NICOTINAMIDE RIBOSIDE FOR PREVENTION AND TREATMENT OF PANCREATIC DISEASES AND CONDITIONS” (SOCIETE DES PRODUITS NESTLE S.A., priority 2020, published 2023).
Counter-ions that a name gives are not always drawn. Blank lines part the entries; values can stand above or below the compound they belong to.

What was measured:
AML12 cells = assay: Pathway of NRH-induced NAD+ synthesis: intracellular metabolites and pathway inhibitors; assay type: cell-based; settings: for Effect of adenosine kinase inhibitor on NRH-mediated NAD+ synthesis: AML12 cells, 5-IT 10 mM for 1 hour prior to NRH, NAD measured 1 hour later
Protocol: FIG. 4. NRH leads to NAD+ biosynthesis through an adenosine kinase dependent path. AML12 cells were treated with an adenosine kinase inhibitor (5-IT; […]) for 1 hour prior to NRH treatment at the doses indicated. Then, 1 hour later, acidic extracts were obtained to measure NAD levels. All values in the figure are expressed as mean+/−SEM of 3 independent experiments. * indicates statistical difference at p<0.05 vs. the respective vehicle treated group.
(§1) Levels of NRH and other NAD-related metabolites in biological samples were obtained by using a cold liquid-liquid extraction using a mixture of methanol:water:chloroform in 5:3:5 (v/v), from which the polar phase was recovered for hydrophilic interaction ultra-high performance liquid chromatography mass spectrometry (UHPLC-MS) analysis. The UHPLC consisted of a binary pump, a cooled autosampler, and a column oven (DIONEX Ultimate 3000 UHPLC+ Focused, Thermo Scientific), connected to a triple quadrupole spectrometer (TSQ Vantage, Thermo Scientific) equipped with a heated electrospray ionisation (H-ESI) source. Of each sample, 2 μL were injected into the analytical column (2.1 mm×150 mm, 5 μm pore size, 200 Å HILICON iHILIC®-Fusion(P)), guarded by a pre-column (2.1 mm×20 mm, 200 Å HILICON iHILIC®-Fusion(P) Guard Kit) operating at 35° C. The mobile phase (10 mM ammonium acetate at pH 9, A, and acetonitrile, B) was pumped at 0.25 mL/min flow rate over a linear gradient of decreasing organic solvent (0.5-16 min, 90-25% B), followed by re-equilibration for a total run time of 30 min. The MS operated in positive mode at 3500 V with multiple reaction monitoring (MRM). The software Xcalibur v4.1.31.9 (Thermo Scientific) was used for instrument control, data acquisition and processing. Retention time and mass detection was confirmed by authentic standards.
A path in which NRH would be converted to NMNH, then to NADH and this would be finally oxidized to NAD+.
In order to understand the exact path by which NRH synthesizes NAD+, we initially evaluated whether NRH, could be transported into the cell by equilibrative nucleoside transporters (ENTs).
(§2) The action of NRH was also NAMPT-independent, based on experiments using FK866, a NAMPT inhibitor. If NRH led to NAD+ synthesis via the formation of NMNH, this hypothetical path would require the phosphorylation of NRH into NMNH. Given the essential and rate-limiting role of NRK1 in NR phosphorylation, we wondered whether the ability of NRH to boost NAD+ levels was NRK1 dependent. To answer this question, we evaluated NRH action in primary hepatocytes from either control or NRK1 knockout (NRK1KO) mice. […] Further, they rule out the possibility that NRH-induced NAD+ […] is driven by NRH oxidation into NR.
Considering the molecular structure of NRH, we reasoned that an alternative nucleoside kinase could be responsible for the phosphorylation of NRH. […] The role of AK in NRH-mediated NAD+ synthesis was confirmed using a second, structurally different, AK inhibitor, ABT-702. Metabolomic analyses further confirmed that upon inhibition of AK, the generation of NMNH, NADH and NAD+ was fully blunted, even if NRH was effectively entering the cell.
As a follow-up step, NMNAT enzymes could catalyze the transition from NMNH to NADH. […] Yet, part of the NRH action remained after gallotannin treatment when NRH was used at maximal doses.

mice = assay: Tissue NAD+ levels in mice after intraperitoneal injection; assay type: in vivo; settings: IP 500 mg/kg, after 1 h
Protocol: (§3) The above results prompted us to test whether NRH could act as an effective NAD+ precursor in vivo. For this, we first intraperitoneally (IP) injected mice with either NR or NRH (500 mg/kg). […] Importantly, NRH was detectable in circulation after IP injection.

[1] = Circulating NRH, NR and NAM in mice after intraperitoneal injection; assay type: in vivo; settings: mice, IP 500 mg/kg
Description: as §1, §3

[2] = Stability of NRH or NR spiked in isolated mouse plasma; assay type: in vitro ADME; settings: 2 h of incubation
Description: as §1

[3] = Plasma NRH, NR and NAM in mice after oral administration; assay type: in vivo; settings: mouse, in vivo, po
Description: as §1
Oral administration of NRH led to very similar results to those observed after IP administration. […] NRH was detectable in plasma 1 h after oral administration. In contrast, NR levels were undetectable at 1 h after NR administration.

[4] = tested on: primary hepatocytes from control or NRK1 knockout (NRK1KO) mice; assay: NAD+ levels in primary hepatocytes from control or NRK1 knockout mice; assay type: cell-based; settings: 1 hour of treatment
Description: as §2

Compound: Nc1ncnc2c1c(I)cn2[C@@H]1O[C@H](CO)[C@@H](O)[C@H]1O [5-IT, 5-iodotubercidin]
Effect of adenosine kinase inhibitor on NRH-mediated NAD+ synthesis (AML12 cells): fully ablated the action of NRH
Formation of NR and NMN after NRH treatment under AK inhibitor (AML12 cells; metabolomic analyses): prevented the formation of NR and NMN

Compound: Nc1ncnc2nc(-c3ccc(N4CCOCC4)nc3)cc(-c3cccc(Br)c3)c12 [ABT-702]
Effect of adenosine kinase inhibitor on NRH-mediated NAD+ synthesis (AML12 cells): confirmed

NAM levels in circulation [1]: highly increased
Compound levels in isolated mouse plasma [2]: decayed
Generation of NAM in isolated mouse plasma [2]: increase in NAM
Circulating NAM after NR treatment relative to NRH treatment ([3]; C57BL/6NTac, 1 h): ~4 fold
Administered compound in plasma [3]: undetectable
Circulating NAM [3]: large increases
NAD+ levels in NRK1KO derived primary hepatocytes [4]: failed to increase NAD+ levels
Compound: NC(=O)c1ccc[n+]([C@@H]2O[C@H](CO)[C@H](O)C2O)c1 (stereo partly drawn) [NR, 1-b-D-ribofuranosyl-3-pyridinecarboxamide salt, reference compound]
NAD+ levels in kidney (mice): increased NAD+ levels
NAD+ levels in liver (mice): increased NAD+ levels
NAD+ levels in muscle (mice): increased NAD+ levels
Intracellular detection of NRH and NMNH (AML12 cells; 5 minutes after treatment): not

Compound: O=C(OC[C@H]1O[C@@H](OC(=O)c2cc(O)c(O)c(OC(=O)c3cc(O)c(O)c(O)c3)c2)[C@H](OC(=O)c2cc(O)c(O)c(OC(=O)c3cc(O)c(O)c(O)c3)c2)[C@@H](OC(=O)c2cc(O)c(O)c(OC(=O)c3cc(O)c(O)c(O)c3)c2)[C@@H]1OC(=O)c1cc(O)c(O)c(OC(=O)c2cc(O)c(O)c(O)c2)c1)c1cc(O)c(O)c(OC(=O)c2cc(O)c(O)c(O)c2)c1 [gallotannin]
Effect of NMNAT inhibitor on NAD+ synthesis after NRH treatment (AML12 cells; NRH at maximal doses (0.5 mM), part of NRH action remained): largely compromised NAD+ synthesis
Effect of NMNAT inhibitor on NRH action (AML12 cells; NRH at submaximal doses): totally blocked
